Measurements reported in the supplement of paper PMC10307832.

How the values were obtained:
Assay in all cases: relative viability (nuclei count vs DMSO), 5 days (fraction); higher = more cells survive
Calu-6 = tested on: Calu-6
In short: (§1)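 Dosing by pin tool came one day after lung cancer cell lines were seeded in 1536-well plates, using either one drug or a fixed anchor-drug dose plus five library-drug doses (not always all listed) in √10 steps. After 5 days, nuclei were counted on 4× images. Relative viability is treated-well nuclei count divided by vehicle-well nuclei count, and values are medians of duplicate plates.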

NCI-H1703 = tested on: NCI-H1703
In short: as §1

EBC-1 = tested on: EBC-1
In short: as §1

A549 = tested on: A549
In short: as §1

IA-LM = tested on: IA-LM
In short: as §1

NCI-H1299 = tested on: NCI-H1299
In short: as §1

NCI-H1623 = tested on: NCI-H1623
In short: as §1

NCI-H1437 = tested on: NCI-H1437
In short: as §1

NCI-H1648 = tested on: NCI-H1648
In short: as §1

| SMILES | relative viability (Calu-6; first compound 0.04 µM) | relative viability (Calu-6; first compound 0.1265 µM) | relative viability (Calu-6; first compound 0.4 µM) | relative viability (Calu-6; first compound 1.265 µM) | relative viability (Calu-6; first compound 4 µM) | relative viability (NCI-H1703; first compound 0.04 µM) | relative viability (NCI-H1703; first compound 1.265 µM) | relative viability (NCI-H1703; first compound 4 µM) | relative viability (EBC-1; first compound 0.04 µM) | relative viability (EBC-1; first compound 0.4 µM) | relative viability (EBC-1; first compound 1.265 µM) | relative viability (NCI-H1623; first compound 0.04 µM) | relative viability (NCI-H1623; first compound 0.1265 µM) | relative viability (NCI-H1623; first compound 0.4 µM) | relative viability (NCI-H1623; first compound 4 µM) | relative viability (NCI-H1437; first compound 0.04 µM) | relative viability (NCI-H1437; first compound 0.1265 µM) | relative viability (NCI-H1437; first compound 0.4 µM) | relative viability (NCI-H1437; first compound 1.265 µM) | relative viability (NCI-H1437; first compound 4 µM) | also measured |
| --- | --- | --- | --- | --- | --- | --- | --- | --- | --- | --- | --- | --- | --- | --- | --- | --- | --- | --- | --- | --- | --- |
| COc1cc(N2CCC(C(N)=O)CC2)ccc1Nc1nc(N)c(Cl)c(Nc2ccccc2S(=O)(=O)C(C)C)n1 [HG-5-88-01] + COc1cc2c(Oc3ccc(NC(=O)C4(C(=O)Nc5ccc(F)cc5)CC4)cc3F)ccnc2cc1OCCCN1CCOCC1 [Foretinib] (partner 0.25 µM) | 0.865 | 0.879 | 0.866 | 0.793 | 0.686 | 0.41 | 0.275 | 0.331 | 0.0975 | 0.12 | 0.11 | 0.925 | 0.906 | 0.845 | 0.773 | 1.27 | 1.28 | 0.912 | 1.2 | 1.37 | relative viability (NCI-H1703; first compound 0.1265 µM): 0.349; relative viability (EBC-1; first compound 4 µM): 0.105; relative viability (A549; first compound 0.04 µM): 0.984; relative viability (A549; first compound 0.1265 µM): 0.861; relative viability (A549; first compound 0.4 µM): 0.993; relative viability (A549; first compound 1.265 µM): 0.87; relative viability (A549; first compound 4 µM): 0.228; relative viability (IA-LM; first compound 0.04 µM): 1.28; relative viability (IA-LM; first compound 0.1265 µM): 1.22; relative viability (IA-LM; first compound 0.4 µM): 1.05; relative viability (IA-LM; first compound 1.265 µM): 0.885; relative viability (IA-LM; first compound 4 µM): 1.18; relative viability (NCI-H1299; first compound 0.04 µM): 1.05; relative viability (NCI-H1299; first compound 0.1265 µM): 1.11; relative viability (NCI-H1299; first compound 0.4 µM): 1.1; relative viability (NCI-H1299; first compound 1.265 µM): 1.07; relative viability (NCI-H1299; first compound 4 µM): 1.1 |
| Clc1ccc(Nc2nnc(Cc3ccncc3)c3ccccc23)cc1 [Vatalanib] + COc1cc2c(Oc3ccc(NC(=O)C4(C(=O)Nc5ccc(F)cc5)CC4)cc3F)ccnc2cc1OCCCN1CCOCC1 [Foretinib] (partner 0.25 µM) | 0.967 | 0.765 | 0.926 | 0.869 | 0.813 | 0.323 | 0.34 | 0.363 | 0.111 | 0.0892 | 0.0958 | 0.816 | 0.861 | 0.794 | 0.783 | 1.25 | 1.27 | 1.4 | 1.21 | 1.26 | relative viability (NCI-H1703; first compound 0.4 µM): 0.335; relative viability (EBC-1; first compound 0.1265 µM): 0.109; relative viability (EBC-1; first compound 4 µM): 0.118; relative viability (A549; first compound 0.04 µM): 1.06; relative viability (A549; first compound 0.1265 µM): 0.909; relative viability (A549; first compound 0.4 µM): 1.01; relative viability (A549; first compound 1.265 µM): 0.881; relative viability (A549; first compound 4 µM): 0.948; relative viability (IA-LM; first compound 0.04 µM): 1.16; relative viability (IA-LM; first compound 0.1265 µM): 1.16; relative viability (IA-LM; first compound 0.4 µM): 1.05; relative viability (IA-LM; first compound 1.265 µM): 0.919; relative viability (IA-LM; first compound 4 µM): 1.06; relative viability (NCI-H1299; first compound 0.04 µM): 1.1; relative viability (NCI-H1299; first compound 0.1265 µM): 1.07; relative viability (NCI-H1299; first compound 0.4 µM): 1.15; relative viability (NCI-H1299; first compound 1.265 µM): 1.11; relative viability (NCI-H1299; first compound 4 µM): 1.11; relative viability (NCI-H1623; first compound 1.265 µM): 0.854 |
| Clc1ccc(Nc2nnc(Cc3ccncc3)c3ccccc23)cc1 [Vatalanib] + Cc1cc(Nc2cc(N3CCN(C)CC3)nc(Sc3ccc(NC(=O)C4CC4)cc3)n2)n[nH]1 [Tozasertib] (partner 0.1 µM) |  |  |  |  |  |  |  |  |  |  |  | 0.415 | 0.435 | 0.455 | 0.393 | 0.409 | 0.353 | 0.41 | 0.437 | 0.392 | relative viability (NCI-H1623; first compound 1.265 µM): 0.374; relative viability (NCI-H1648; first compound 0.04 µM): 0.581; relative viability (NCI-H1648; first compound 0.1265 µM): 0.442; relative viability (NCI-H1648; first compound 0.4 µM): 0.483; relative viability (NCI-H1648; first compound 1.265 µM): 0.523; relative viability (NCI-H1648; first compound 4 µM): 0.419 |
